Source: PMC8494430, “Development of a fluorogenic ADAMTS-7 substrate” (Journal of Enzyme Inhibition and Medicinal Chemistry, 2021)

Tests used:
[1] = Appearance of solution upon dilution of peptide in assay buffer (solubility); format: physicochemical; conditions: 10 mM DMSO stock diluted in assay buffer
Method: The cleavage sites ^193Arg↓Ala^194 and ^195Glu↓Ala^196 were chosen to design the FRET substrate ATS7FP0 (Table 1). This peptide covers residues Ala^188-Ala^198 in LTBP4S and contains a FAM/TAMRA fluorophore/quencher pair. The quencher is covalently linked to the ε amino group of an extra C-terminal lysine residue. Stock solutions were routinely prepared at 10 mM in DMSO and stored at −80 °C. […] This was most likely due to the high content in hydrophobic amino acids of this peptide, which added to the hydrophobicity of the fluorophore/quencher pair. Nevertheless, ATS7FP0 generated fluorescence upon cleavage by ADAMTS-7 (Figure 2(A)). With the aim to improve both solubility and cleavage rate by ADAMTS-7, seven additional peptides were designed using the sequence of ATS7FP0 as a starting point. The N-terminal alanine residue present in ATS7FP0 was removed to generate peptide ATS7FP7 with a reduced aliphatic index (Table 1). […] To assess the effect of a P4′ proline residue on the cleavage rate, peptide ATS7FP7 was modified to generate ATS7FP8. […] Since we also determined that ADAMTS-7 prefers arginine in P1 (Figure 1(D)), we mutated one alanine residue in the parental sequence into arginine with the aim to improve both cleavage rate and hydrophilicity, thus generating peptide ATS7FP3. […]

ADAMTS-4 = biological target: T1, ADAMTS-4 (Homo sapiens, UniProt O75173); assay: Cleavage of ATS7FP7 by ADAMTS-4 (kinetic constants); format: biochemical; conditions: cleavage of ATS7FP7 by ADAMTS-4 (10 nM), 37 °C
T1 construct: made in house
T1 sequence (O75173 213-837): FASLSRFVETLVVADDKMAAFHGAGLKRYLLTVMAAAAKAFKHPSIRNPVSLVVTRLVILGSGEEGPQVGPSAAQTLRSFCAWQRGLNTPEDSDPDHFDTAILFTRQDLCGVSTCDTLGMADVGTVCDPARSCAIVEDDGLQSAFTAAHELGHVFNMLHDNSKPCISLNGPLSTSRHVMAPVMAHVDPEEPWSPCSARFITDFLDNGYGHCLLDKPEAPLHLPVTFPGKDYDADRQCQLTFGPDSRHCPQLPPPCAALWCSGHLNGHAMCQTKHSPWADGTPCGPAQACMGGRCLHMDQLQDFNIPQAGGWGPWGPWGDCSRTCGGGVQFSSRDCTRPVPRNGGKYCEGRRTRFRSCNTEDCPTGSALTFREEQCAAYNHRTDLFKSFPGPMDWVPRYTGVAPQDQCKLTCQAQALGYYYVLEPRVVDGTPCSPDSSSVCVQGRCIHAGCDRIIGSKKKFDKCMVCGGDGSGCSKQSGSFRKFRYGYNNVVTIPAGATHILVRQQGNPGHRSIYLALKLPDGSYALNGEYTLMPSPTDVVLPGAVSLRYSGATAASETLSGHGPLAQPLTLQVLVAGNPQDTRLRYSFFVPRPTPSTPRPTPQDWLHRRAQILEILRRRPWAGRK
Method: All enzyme assays were conducted in TNC-B buffer (50 mM Tris- HCl, pH 7.5, 150 mM NaCl, 10 mM CaCl2, and 0.02% NaN3) at 37 °C in 384 well plates (Cat. No: 784900, Greiner Bio-One, Austria). To avoid the formation of inhibitor or peptide aggregates, the detergent Brij-35 (0.05%) was added to TNC-B[13]. For inhibition studies, stock solutions of chemical compounds were prepared in dimethyl sulfoxide (DMSO) (10 mM). These were further diluted at different concentrations in TNC-B and incubated with ADAMTS-1, ADAMTS-4, ADAMTS-5, ADAMTS-7 or ADAMTS-8 (10 nM) for 1 h at 37 °C. Blank samples were prepared using buffer only and the rate of cleavage for blank reactions was subtracted from the rates measured in the presence of enzyme. Upon addition of the indicated ADAMTS-7 FRET substrates (40 µM), the fluorescence was measured immediately using a FLUOstar Omega microplate reader (BMG Labtech, Germany) with an excitation filter wavelength of 485 nm and an emission filter wavelength of 520 nm. […]
Supplementary Figure 6: Cleavage of ATS7FP7 by members of the ADAMTS family. […] Fluorescence was detected (λex = 485 nm, λem = 520 nm) for 8 h at 37°C and reported as relative fluorescence units (RFU). […]

For “Glu-Ala-Ala-Ala-Arg↓Ala-Glu↓Ala-Ala-Ala-Lys [ATS7FP7]”, which “appearance of solution upon dilution in the assay buffer (solubility)” value [1] is on record?
Its value is “homogeneous”.

And the Km (ADAMTS-4)?
The Km was 9.5 ± 1.7 µM.

And the kcat (ADAMTS-4)?
Its kcat is 0.116 ± 0.0060 s⁻¹.
